PubChem BioAssay AID1189 (EPA DSSTox, 2008)
Activity calls are given as the source filed them.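 The calls were made as follows: active = a tumor-causing dose value with its tumor site reported for any sex and species group of a rodent or other animal cancer study; inconclusive = only studies judged inadequate by the national testing program; inactive = tested in at least one study, none positive.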 Peptide text beside a SMILES is read from it.

Test: DSSTox (CPDBAS) Carcinogenic Potency Database Summary SingleCellCall Results
Settings: animal chronic carcinogenicity bioassays, CPDB summary call
Text: The Carcinogenic Potency Database (CPDB) is a unique and widely used international resource of the results of over 6500 chronic, long-term animal cancer tests on over 1500 chemical substances. The CPDB provides easy access to the bioassay literature, with qualitative and quantitative analyses of both positive and negative experiments that have been published over the past 50 years in the general literature and by the National Cancer Institute/National Toxicology Program. The CPDB standardizes the diverse literature of cancer bioassays that vary widely in protocol, histopathological examination and nomenclature, and in the published author's choices of what information to provide in their papers. Results are reported in the CPDB for tests in rats, mice, hamsters, dogs, and nonhuman primates, and are based on the most positive result among all experiments for each sex-species. The DSSTox CPDBAS (all species) file incorporates data from the CPDB Summary Tables for the full list of over 1500 chemical substances tested in at least one species. A summary SingleCellCall, based on experimental bioassay results of one or more species, is provided for the entire DSSTox CPDBAS file (see Source URL).
An assignment of categorical carcinogenic activity based on minimal evidence for or against activity. […] Associated TD50 values and tumor site details for the relevant species/sex experiment supporting this overall CPDBAS SingleSiteCall are provided in the full CPDBAS DSSTox file (see Comment) and the corresponding CPDBAS Species Bioassay in PubChem.

In the case of `Nc1ccc(Cc2ccc(N)cc2)cc1`, the outcome is reported as “active; inactive”.

With `CNCCC(Oc1ccc(C(F)(F)F)cc1)c1ccccc1` (stereo unspecified) the outcome was “inactive; active”.

In the case of `CN=[N+](C)[O-]`, the outcome is reported as “active”.

In the case of `Cc1ccccc1N`, the outcome is reported as “active”.

For `CC(Oc1ccc(Cl)cc1Cl)C(=O)O` (stereo unspecified), the outcome was “inactive”.

For `O=C1NCCN1/N=C/c1ccc([N+](=O)[O-])o1`, the outcome was “active”.

For `CCN(CC)C(=S)SSC(=S)N(CC)CC`, the outcome was “inactive; active”.

With `Nc1ccc(O)c([N+](=O)[O-])c1` the outcome was “active”.

In the case of `COP(=S)(OC)Oc1ccc([N+](=O)[O-])cc1`, the outcome is reported as “inactive”.

For `C[C@@H]1CCC[C@H](C)N1CCCC(O)(c1ccccc1)c1ccccn1` (stereo partly specified), the outcome was “inactive; active”.

With `CC(Oc1cc(Cl)ccc1Cl)C(=O)O` (stereo unspecified) the outcome was “inactive”.

With `Nc1nc(-c2ccc([N+](=O)[O-])cc2)cs1` the outcome was “active”.

In the case of `CCCCCCCCCCCCN(C)N=O`, the outcome is reported as “active”.

For `Cn1nc(CO)nc1NCCCOc1cccc(CN2CCCCC2)c1`, the outcome was “active”.

With `CCCCCN(N=O)C(=O)OCC` the outcome was “active”.

In the case of `O=NN(CCO)CC(O)CO` (stereo unspecified), the outcome is reported as “active”.

With `Nc1ccc(O)c(N)c1` the outcome was “active”.

In the case of `CC(C)OC(=O)Nc1ccccc1`, the outcome is reported as “inactive; active”.

For `CN(C)C(=O)COC(=O)Cc1ccc(OC(=O)c2ccc(N=C(N)N)cc2)cc1`, the outcome was “inactive”.

For `CCCCC(CC)COP(=O)(OCC(CC)CCCC)OCC(CC)CCCC` (stereo unspecified), the outcome was “active”.

With `CC(C)(c1ccc(O)cc1)c1ccc(O)cc1` the outcome was “inactive; active”.

In the case of `Oc1cc2c(cc1O)[C@H]1c3ccc(O)c(O)c3OC[C@@]1(O)C2`, the outcome is reported as “active”.

For `CCC1C(=O)OCC1Cc1cncn1C` (stereo unspecified), the outcome was “inactive”.

In the case of `CC(COc1ccccc1)N(CCCl)Cc1ccccc1` (stereo unspecified), the outcome is reported as “active; inactive”.

With `C=CC(=O)OCC` the outcome was “active”.

For `CCC(CC)[N+](=O)[O-]`, the outcome was “active”.

With `O=C(O[C@@H]1Cc2c(O)cc(O)cc2O[C@@H]1c1cc(O)c(O)c(O)c1)c1cc(O)c(O)c(O)c1` the outcome was “inactive”.

In the case of `O=[N+]([O-])c1ccc2nc[nH]c2c1`, the outcome is reported as “active”.

With `COC(=O)[C@H](Cc1ccccc1)NC(=O)[C@@H](N)CC(=O)O` (H-Asp-Phe-OMe) the outcome was “inactive”.

For `COc1ccc([N+](=O)[O-])cc1N`, the outcome was “active”.

For `CC1CN(N=O)CC(C)N1C(=O)c1ccccc1` (stereo unspecified), the outcome was “active”.

For `CCN(N)C=O`, the outcome was “active”.

In the case of `COc1cc2c(c3oc4cccc(O)c4c(=O)c13)C1C=COC1O2` (stereo unspecified), the outcome is reported as “active; inactive”.

In the case of `NC(Cc1ccc(O)c(O)c1)C(=O)O` (stereo unspecified), the outcome is reported as “inactive”.

In the case of `C=CCOc1ccc(CC(=O)O)cc1Cl`, the outcome is reported as “inactive”.

In the case of `O=S(=O)(O)c1cc(S(=O)(=O)O)c2c(N=Nc3ccc(S(=O)(=O)O)c4ccccc34)c(O)ccc2c1`, the outcome is reported as “active; inactive”.

With `CC(=O)CN(N=O)C(N)=O` the outcome was “active”.

For `COc1cc(N)ccc1N=Nc1ccccc1`, the outcome was “inactive; active”.

For `CC(O)CNC(=O)N(N=O)C(C)Cl` (stereo unspecified), the outcome was “active”.

In the case of `Nc1ccccc1C(=O)OC/C=C/c1ccccc1`, the outcome is reported as “active”.

With `C=CCN=C=S` the outcome was “active; inactive”.

For `[O-]/[N+](=N\O)c1ccccc1`, the outcome was “active; inactive”.

In the case of `O=C1CCN([C@@H]2O[C@H](CO)[C@@H](O)[C@H]2O)C(=O)N1`, the outcome is reported as “inactive”.

In the case of `COc1ccccc1[N+](=O)[O-]`, the outcome is reported as “active”.

With `CCCCCCCCCCCCN=C(N)N` the outcome was “inactive”.

With `N[C@@H](CS)C(=O)O` the outcome was “inactive”.

For `CN1C(=O)C[C@@H](C(=O)N[C@@H](Cc2cnc[nH]2)C(=O)N2CCC[C@H]2C(N)=O)NC1=O`, the outcome was “inactive; active”.

With `COc1c(Cl)c(Cl)c([N+](=O)[O-])c(Cl)c1Cl` the outcome was “inactive”.

For `Cc1ccc(O)c(C(C)(C)C)c1`, the outcome was “inactive”.

With `COc1ccc2c(c1)c(CC(=O)O)c(C)n2C(=O)c1ccc(Cl)cc1` the outcome was “active; inactive”.

For `NNC(=O)c1ccccc1`, the outcome was “active”.

In the case of `Cc1ccc(N=Nc2c(O)ccc3ccccc23)c([N+](=O)[O-])c1`, the outcome is reported as “active”.

In the case of `CCn1c2ccccc2c2cc(N)ccc21`, the outcome is reported as “active”.

With `CC(=O)Nc1cccc2c1-c1ccccc1C2` the outcome was “inactive”.

In the case of `CC(=O)Nc1ccc(-c2ccccc2)cc1`, the outcome is reported as “active”.

With `CNC(=O)Oc1cc(C)c(N(C)C)c(C)c1` the outcome was “inactive”.

For `O=CNc1nc(-c2ccc([N+](=O)[O-])o2)cs1`, the outcome was “active”.

For `CCCCCCCCCCCC[N+](C)(C)[O-]`, the outcome was “inactive”.

In the case of `CCNc1nc(Cl)nc(NCC)n1`, the outcome is reported as “inactive”.

With `NNCCc1ccccc1` the outcome was “active”.

For `Nc1ncn([C@@H]2O[C@H](CO)[C@@H](O)[C@H]2O)c(=O)n1`, the outcome was “active”.

With `[O]=[Nb](=[O])[OH]` the outcome was “inactive”.

With `CCN=c1cc2oc3cc(NCC)c(C)cc3c(-c3ccccc3C(=O)OCC)c-2cc1C` the outcome was “inactive; active”.

With `CN(C)CCN(Cc1ccsc1)c1ccccn1` the outcome was “inactive; active”.

For `O=S(=O)(O)c1ccc2c(N=Nc3ccc(S(=O)(=O)O)c4ccccc34)c(O)c(S(=O)(=O)O)cc2c1`, the outcome was “active”.

In the case of `CN(N=O)c1cccnc1`, the outcome is reported as “inactive”.

In the case of `CCOP(=S)(OCC)Oc1cc(C)nc(C(C)C)n1`, the outcome is reported as “inactive; active”.

For `O=NN1CCCC1`, the outcome was “active; inactive”.

In the case of `C=CC#N`, the outcome is reported as “active”.

For `CCCN(N=O)C(N)=O`, the outcome was “active”.

With `Cc1cccc(Nc2cc(Cl)nc(SCC(=O)NCCO)n2)c1C` the outcome was “active; inactive”.

With `Cc1ccc(S(=O)(=O)Oc2ccc(N=Nc3ccc(-c4ccc(N=Nc5c(O)ccc6cc(S(=O)(=O)O)cc(S(=O)(=O)O)c56)c(C)c4)cc3C)cc2)cc1` the outcome was “active”.

For `COc1cc2c(c3c1c(=O)c1ccccc1n3C)C=CC(C)(C)O2`, the outcome was “active; inactive”.

With `CCN(Cc1cccc(S(=O)(=O)O)c1)c1ccc(C(=C2C=CC(=[N+](CC)Cc3cccc(S(=O)(=O)O)c3)C=C2)c2ccccc2S(=O)(=O)[O-])cc1` the outcome was “inactive; active”.

In the case of `N#Cc1c(Cl)c(Cl)c(Cl)c(C#N)c1Cl`, the outcome is reported as “active; inactive”.

In the case of `S=C=NCc1ccccc1`, the outcome is reported as “inactive”.

In the case of `ClC1=C(Cl)[C@]2(Cl)[C@@H]3[C@H]4C=CC(C4)[C@@H]3C1(Cl)C2(Cl)Cl`, the outcome is reported as “active”.

With `CN(CCCC(=O)O)N=O` the outcome was “active”.

With `COc1ccc(N)c(C)c1` the outcome was “active”.

With `Nc1c(Cl)cc([N+](=O)[O-])cc1Cl` the outcome was “inactive”.

With `CN(C)c1ccc(N=NS(=O)(=O)O)cc1` the outcome was “inactive”.

In the case of `O=C1C=C(N2CC2)C(=O)C(N2CC2)=C1N1CC1`, the outcome is reported as “active”.

With `Oc1cccc2cccnc12` the outcome was “inactive”.

With `S=c1[nH]c2ccccc2s1` the outcome was “active”.

In the case of `ClCc1cccnc1`, the outcome is reported as “active”.

In the case of `C[C@@H]1O[C@@H](OC[C@H]2O[C@@H](Oc3c(-c4ccc(O)c(O)c4)oc4cc(O)cc(O)c4c3=O)[C@H](O)[C@@H](O)[C@@H]2O)[C@H](O)[C@H](O)[C@H]1O`, the outcome is reported as “inactive”.

With `CC1=C(C)C(=O)C(C(CCCCCC(=O)O)c2ccccc2)=C(C)C1=O` (stereo unspecified) the outcome was “inactive”.

In the case of `COc1cccc(O)c1O`, the outcome is reported as “active”.

With `COc1ccc(CCN2CCC(Nc3nc4ccccc4n3Cc3ccc(F)cc3)CC2)cc1` the outcome was “inactive”.

For `NC(=O)NNc1ccccc1`, the outcome was “active; inactive”.

With `CN1[C@@H]2CC[C@H]1CC(OC(=O)C(CO)c1ccccc1)C2` (stereo partly specified) the outcome was “inactive; active”.

With `O=C1C2(Cl)C3(Cl)C4(Cl)C(Cl)(Cl)C5(Cl)C3(Cl)C1(Cl)C5(Cl)C24Cl` (stereo unspecified) the outcome was “active; inactive”.

For `O=S(=O)(O)c1c(N=Nc2c(O)ccc3ccccc23)ccc2ccccc12`, the outcome was “inactive; active”.

With `F[B-](F)(F)F` the outcome was “inactive”.

With `NC(=O)/C(=C\c1ccc([N+](=O)[O-])o1)c1ccco1` the outcome was “active”.

With `NC(=O)N(CCCO)N=O` the outcome was “active; inactive”.

With `CCCC(CCC)C(=O)O` the outcome was “active”.

With `COc1ccc(C(c2ccc(OC)cc2)C(Cl)(Cl)Cl)cc1` the outcome was “inactive; active”.

With `O=P(OC(CCl)CCl)(OC(CCl)CCl)OC(CCl)CCl` the outcome was “active”.

For `CCCCN(N)C=O`, the outcome was “active”.

In the case of `CCc1ccc(C(c2ccc(CC)cc2)C(Cl)Cl)cc1`, the outcome is reported as “inactive”.

With `O=NN1CCCCC1C(=O)O` (stereo unspecified) the outcome was “inactive”.

With `CCCCCCC(=O)/C=C/CCCCCCCCC(=O)OC` the outcome was “inactive; active”.

For `Cc1cc(O)c2c(c1)C(=O)c1cc(O)cc(O)c1C2=O`, the outcome was “inactive; active”.

In the case of `CC[C@H](C)C(=O)O[C@H]1C[C@@H](C)C=C2C=C[C@H](C)[C@H](CC[C@@H]3C[C@@H](O)CC(=O)O3)[C@H]21`, the outcome is reported as “active; inactive”.

With `NS(=O)(=O)c1cc(C(=O)O)c(NCc2ccco2)cc1Cl` the outcome was “active; inactive”.

With `Oc1ccc(-c2ccccc2)cc1` the outcome was “inactive; active”.

With `O` the outcome was “inactive”.

In the case of `O=[N+]([O-])c1cccc2ccccc12`, the outcome is reported as “inactive”.

For `COC(=O)C1=CCCN(C)C1`, the outcome was “active”.

In the case of `Cc1cc(Cl)ccc1N`, the outcome is reported as “active”.

For `Nc1ccc2ccccc2c1S(=O)(=O)O`, the outcome was “inactive”.

With `[O]=[Cr][O][Cr]=[O]` the outcome was “inactive”.

With `O=C(O)C1[O][Sb]2[O]C(=O)C([O]2)C(C(=O)O)[O][Sb]2[O]C(=O)C1[O]2` (stereo unspecified) the outcome was “inactive”.

In the case of `C1OC1C1CO1` (stereo unspecified), the outcome is reported as “inactive”.

With `O=[N+]([O-])c1ccc(Oc2ccc(Cl)cc2Cl)cc1` the outcome was “active”.
